Results published in ChEMBL document CHEMBL5143566, “Discovery of Pyrazolo[1,5-a]pyrazin-4-ones as Potent and Brain Penetrant GluN2A-Selective Positive Allosteric Modulators Reducing AMPA Receptor Binding Activity” (Bioorg Med Chem, 2022).
Blank lines part the entries; values can stand above or below the compound they belong to. The source made the active and inactive calls. The rule behind the calls is not given here.

What was measured:
[1] = target: T1, Glutamate receptor 2 (Homo sapiens, UniProt P42262); assay: Displacement of [3H]-HBT1 from His-tagged GluA2-AMPA (unknown origin) receptor expressed in CHO cells in presence of glutamate by scintillation proximity assay; assay type: cell-based
[2] = 1-Octanol/aqueous buffer distribution coefficient, log D of the compound at pH 7.4 by HPLC analysis; assay type: physicochemical
[3] = target: T2, Glutamate NMDA receptor; GRIN1/GRIN2A (Homo sapiens, UniProt Q05586+Q12879); assay: Positive allosteric modulator activity at GluN1a/GluN2A (unknown origin) expressed in CHO cells assessed as maximum potentiation at 30 uM in presence of glutamate by Ca2+ influx assay relative to control; assay type: cell-based
[4] = target: T2, Glutamate NMDA receptor; GRIN1/GRIN2A; assay: Positive allosteric modulator activity at GluN1a/GluN2A (unknown origin) expressed in CHO cells in presence of glutamate by Ca2+ influx assay; assay type: cell-based
[5] = Clearance in rat liver microsomes at 1 uM in presence of NADPH measured for 15 to 30 min by LC-MS/MS analysis; assay type: ADME, Microsome; conditions: time 15-30 min, read-out: CLH
[6] = target: T1, Glutamate receptor 2; assay: Positive allosteric modulator activity at GluA2-AMPA receptor (unknown origin) by FLIPR assay
[7] = target: Glutamate receptor ionotropic, NMDA 2A (Homo sapiens) (UniProt Q12879); assay: Positive allosteric modulator activity at GluN2A receptor (unknown origin) assessed as maximum potentiation by FLIPR assay relative to control; conditions: filed as positive allosteric modulator
[8] = target: Glutamate receptor ionotropic, NMDA 2A (Homo sapiens, UniProt Q05586+Q12879); assay: Positive allosteric modulator activity at GluN2A receptor (unknown origin) by FLIPR assay
[9] = target: T1, Glutamate receptor 2; assay: Positive allosteric modulator activity at GluA2-AMPA receptor (unknown origin) assessed as maximum potentiation by FLIPR assay relative to control
[10] = target: T1, Glutamate receptor 2; assay: Displacement of [3H]-HBT1 from GluA2-AMPA receptor (unknown origin) in presence of glutamate by scintillation proximity assay
[11] = Clearance in human liver microsomes at 1 uM in presence of NADPH measured for 15 to 30 min by LC-MS/MS analysis; assay type: ADME, Microsome; conditions: time 15-30 min, read-out: CLH
[12] = target: T3, Ionotropic glutamate receptor NMDA 1/2C (Homo sapiens, UniProt Q05586+Q14957); assay: Positive allosteric modulator activity at GluN1a/GluN2C (unknown origin) expressed in CHO cells at 30 uM in presence of glutamate by Ca2+ influx assay relative to control; assay type: cell-based; conditions: filed as positive allosteric modulator
[13] = organism: Homo sapiens; assay: Selectivity index, ratio of EC50 for GluN1a/GluN2C (unknown origin) expressed in CHO cells to EC50 for GluN1a/GluN2A (unknown origin) expressed in CHO cells; assay type: cell-based
[14] = Ratio of drug concentration in brain to plasma at 3 mg/kg, po after 2 hr by LC-MS/MS analysis; assay type: ADME, organism-based; conditions: rat, brain and plasma, read-out: BPR
[15] = Volume of distribution at steady state in rat at 1 mg/kg, iv by LC-MS/MS analysis; assay type: ADME, organism-based; conditions: in vivo, read-out: Vdss
[16] = Drug concentration in rat plasma at 3 mg/kg, po after 2 hrs by LC-MS/MS analysis; assay type: ADME, organism-based
[17] = Drug concentration in rat plasma at 3 mg/kg, po after 0.5 hrs by LC-MS/MS analysis; assay type: ADME, organism-based
[18] = tested on: CHO; assay: Positive allosteric modulator activity at GluN1a/GluN2B (unknown origin) expressed in CHO cells at 30 uM in presence of glutamate by Ca2+ influx assay relative to control; assay type: cell-based; conditions: Homo sapiens
[19] = Oral bioavailability in rat at 10 mg/kg by LC-MS/MS analysis; assay type: ADME, organism-based; conditions: in vivo
[20] = target: T3, Ionotropic glutamate receptor NMDA 1/2C; assay: Positive allosteric modulator activity at GluN1a/GluN2C (unknown origin) expressed in CHO cells in presence of glutamate by Ca2+ influx assay; assay type: cell-based
[21] = Drug concentration in rat brain at 3 mg/kg, po after 2 hrs by LC-MS/MS analysis; assay type: ADME, organism-based; conditions: read-out: Ct
[22] = organism: Homo sapiens; assay: Selectivity index, ratio of EC50 for GluN1a/GluN2D (unknown origin) expressed in CHO cells to EC50 for GluN1a/GluN2A (unknown origin) expressed in CHO cells; assay type: cell-based
[23] = Drug concentration in rat plasma at 3 mg/kg, po after 1 hrs by LC-MS/MS analysis; assay type: ADME, organism-based
[24] = Total clearance in rat at 1 mg/kg, iv by LC-MS/MS analysis; assay type: ADME, organism-based; conditions: in vivo
[25] = AUC in rat at 10 mg/kg, po by LC-MS/MS analysis; assay type: ADME, organism-based; parameters: dose 10 mg/kg, route po; conditions: in vivo
[26] = tested on: Rattus norvegicus; assay: Induction of LTP enhancement in Sprague-Dawley rat assessed as increase in LTP enhancement in hippocampal slices at 10 mg/kg, po; assay type: functional, organism-based
[27] = target: Ionotropic glutamate receptor NMDA 1/2D (Homo sapiens, UniProt O15399+Q05586); assay: Positive allosteric modulator activity at GluN1a/GluN2D (unknown origin) expressed in CHO cells in presence of glutamate by Ca2+ influx assay; assay type: cell-based
[28] = Ratio of drug concentration in brain to plasma at 3 mg/kg, po after 0.5 hr by LC-MS/MS analysis; assay type: ADME, organism-based; conditions: rat, brain and plasma, read-out: BPR
[29] = MRT in rat at 10 mg/kg, po by LC-MS/MS analysis; assay type: ADME, organism-based; conditions: in vivo
[30] = organism: Homo sapiens; assay: Selectivity index, ratio of EC50 for GluN1a/GluN2B (unknown origin) expressed in CHO cells to EC50 for GluN1a/GluN2A (unknown origin) expressed in CHO cells; assay type: cell-based
[31] = Drug concentration in rat brain at 3 mg/kg, po after 1 hrs by LC-MS/MS analysis; assay type: ADME, organism-based; conditions: read-out: Ct
[32] = Cmax in rat at 1 mg/kg, iv by LC-MS/MS analysis; assay type: ADME, organism-based; parameters: dose 1 mg/kg, route iv; conditions: in vivo
[33] = Drug concentration in rat brain at 3 mg/kg, po after 0.5 hrs by LC-MS/MS analysis; assay type: ADME, organism-based; conditions: read-out: Ct
[34] = target: Ionotropic glutamate receptor NMDA 1/2D (Homo sapiens) (UniProt Q05586+O15399); assay: Positive allosteric modulator activity at GluN1a/GluN2D (unknown origin) expressed in CHO cells at 30 uM in presence of glutamate by Ca2+ influx assay relative to control; assay type: cell-based; conditions: filed as positive allosteric modulator
[35] = Ratio of drug concentration in brain to plasma at 3 mg/kg, po after 1 hr by LC-MS/MS analysis; assay type: ADME, organism-based; conditions: rat, brain and plasma, read-out: BPR
[36] = filed as positive allosteric modulator

T1 sequence (P42262 whole entry): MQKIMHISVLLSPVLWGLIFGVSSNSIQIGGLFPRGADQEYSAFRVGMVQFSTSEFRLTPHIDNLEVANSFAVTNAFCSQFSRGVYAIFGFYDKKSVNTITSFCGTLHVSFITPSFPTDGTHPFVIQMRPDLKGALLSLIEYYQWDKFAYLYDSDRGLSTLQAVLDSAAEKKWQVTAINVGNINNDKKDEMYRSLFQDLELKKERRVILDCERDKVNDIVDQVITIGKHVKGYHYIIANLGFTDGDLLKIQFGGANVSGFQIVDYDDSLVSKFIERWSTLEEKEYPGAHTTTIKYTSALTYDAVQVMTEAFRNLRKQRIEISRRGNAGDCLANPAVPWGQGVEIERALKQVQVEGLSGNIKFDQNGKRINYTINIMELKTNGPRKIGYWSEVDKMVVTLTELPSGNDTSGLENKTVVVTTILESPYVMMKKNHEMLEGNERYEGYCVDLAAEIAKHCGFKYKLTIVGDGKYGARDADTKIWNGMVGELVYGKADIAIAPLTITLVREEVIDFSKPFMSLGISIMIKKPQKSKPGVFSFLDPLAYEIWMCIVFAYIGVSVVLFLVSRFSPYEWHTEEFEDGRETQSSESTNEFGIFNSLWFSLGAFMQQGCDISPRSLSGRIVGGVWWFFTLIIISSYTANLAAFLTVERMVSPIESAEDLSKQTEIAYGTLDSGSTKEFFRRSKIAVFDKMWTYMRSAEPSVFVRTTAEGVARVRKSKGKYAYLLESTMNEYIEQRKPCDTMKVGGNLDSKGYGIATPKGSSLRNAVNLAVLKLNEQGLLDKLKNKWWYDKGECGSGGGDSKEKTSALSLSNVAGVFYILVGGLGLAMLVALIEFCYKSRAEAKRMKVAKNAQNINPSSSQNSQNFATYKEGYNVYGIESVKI

SMILES: Cc1cn(CCC#N)c(=O)c2cc(Cn3nc(Br)cc3Cl)nn12
IC50 [1]: > 30 µM
logD [2]: 2.16
%max [3, 36]: 160%
EC50 [4]: 1.5 µM
microsomal CLint at 1 µM [5]: 1 µL/min/mg

SMILES: N#C[C@H]1C[C@H]1c1c(Cl)ccc2nc(Cn3nc(C(F)(F)F)cc3Cl)cc(=O)n12
EC50 [6]: > 30 µM
%max [7]: 471%
EC50 [8]: 0.039 µM
%max [9]: 61%
IC50 [10]: 0.38 µM

SMILES: Cc1cc(Cl)n(Cc2cc3c(=O)n(CCC#N)cc(C)n3n2)n1
microsomal CLint at 1 µM [11]: 8 µL/min/mg
IC50 [1]: > 30 µM
logD [2]: 1.84
%max [3]: < 150%
microsomal CLint at 1 µM [5]: 10 µL/min/mg

SMILES: Cc1cn(CCC#N)c(=O)c2cc(Cn3nc(C(F)F)cc3Cl)nn12
IC50 [1]: > 30 µM
logD [2]: 1.88
%max [3, 36]: 220%
EC50 [4]: 2 µM

SMILES: CCN(Cc1cc2ccn(CC#N)c(=O)c2s1)c1ccc(F)cc1
IC50 [1]: > 30 µM
logD [2]: 2.63
%max [3, 36]: 230%
EC50 [4]: > 30 µM

SMILES: Cc1cn(CCC#N)c(=O)c2cc(Cn3nc(C(F)(F)F)cc3Cl)nn12
IC50 [1]: 19 µM
logD [2]: 2.32
%max [3, 36]: 420%
microsomal CLint at 1 µM [5]: 7 µL/min/mg

SMILES: Cc1cn(CCC#N)c(=O)c2cc(Cn3nc(Cl)cc3Cl)nn12
IC50 [1]: > 30 µM
logD [2]: 2.07
%max [3]: < 150%
EC50 [4]: > 30 µM
microsomal CLint at 1 µM [5]: 13 µL/min/mg

SMILES: Cc1cn([C@@H](C)CC#N)c(=O)c2cc(Cn3nc(C(F)F)cc3Cl)nn12
IC50 [1]: > 30 µM
logD [2]: 2.06
%max [3]: < 150%

SMILES: Cc1cn([C@H](C)CC#N)c(=O)c2cc(Cn3nc(C(F)F)cc3Cl)nn12
%max [12]: 200%
Ratio EC50 [13]: 19
Kp at 2 h [14]: 0.51
microsomal CLint at 1 µM [11]: 33 µL/min/mg
Vd [15]: 0.657 L/kg
concentration at 2 h [16]: 286 ng/mL
concentration at 0.5 h [17]: 523 ng/mL
%max [18]: < 150%
IC50 [1]: > 30 µM
bioavailability [19]: 21.4%
EC50 [20]: > 30 µM
concentration at 2 h [21]: 146 ng/g
Ratio EC50 [22]: 19
concentration at 1 h [23]: 397 ng/mL
logD [2]: 2.06
clearance [24]: 3.92 mL/min/kg
AUC [25]: 9140 ng·h/mL
%max [3, 36]: 350%
EC50 [4]: 0.51 µM
Activity [26]: Active
EC50 [27]: > 30 µM
Kp at 0.5 h [28]: 0.59
MRT [29]: 3.5 h
Ratio EC50 [30]: > 59
concentration at 1 h [31]: 187 ng/g
Cmax [32]: 1910 ng/mL
concentration at 0.5 h [33]: 307 ng/g
%max [34]: 260%
Kp at 1 h [35]: 0.47

SMILES: N#C[C@H]1C[C@H]1c1c(C(F)(F)F)sc2nc(Cn3nc(C(F)(F)F)cc3Cl)cc(=O)n12
EC50 [6]: 24 µM
%max [7]: 416%
EC50 [8]: 0.011 µM
%max ([9]; BLD = below limit of detection): Bld
IC50 [10]: 0.88 µM

Continued, values first:

IC50 [1]: > 30 µM
logD [2]: 2.68
%max [3, 36]: 450%
EC50 [4]: 2.3 µM
SMILES: CCN(Cc1cc2ccn(CCC#N)c(=O)c2s1)c1ccc(F)cc1

IC50 [1]: > 30 µM
logD [2]: 3.34
%max [3, 36]: 410%
EC50 [4]: 4.4 µM
SMILES: CCc1cn(CCC#N)c(=O)c2sc(CN(CC)c3ccc(F)cc3)cc12

IC50 [1]: 0.61 µM
logD [2]: 2.92
%max [3, 36]: 320%
EC50 [4]: > 30 µM
SMILES: CCN(Cc1cc2c(=O)n(CCC#N)ccc2s1)c1ccc(F)cc1

EC50 [6]: > 30 µM
%max [7]: 270%
EC50 [8]: > 30 µM
logD [2]: 2.06
%max ([9]; BLD = below limit of detection): Bld
IC50 [10]: 1.2 µM
SMILES: CCN(Cc1ccc(C(=O)N2CCC[C@@H]2C#N)s1)c1ccc(F)cc1

microsomal CLint at 1 µM [11]: 37 µL/min/mg
IC50 [1]: 22 µM
logD [2]: 2.83
%max [3, 36]: 420%
EC50 [4]: 0.16 µM
microsomal CLint at 1 µM [5]: 91 µL/min/mg
SMILES: CCN(Cc1cc2c(=O)n(CCC#N)cc(C)n2n1)c1ccc(F)cc1

IC50 [1]: 22 µM
logD [2]: 2.45
%max [3, 36]: 420%
EC50 [4]: 5.2 µM
SMILES: CCN(Cc1cc2c(=O)n(CCC#N)ccn2n1)c1ccc(F)cc1

IC50 [1]: > 30 µM
logD [2]: 3.01
%max [3, 36]: 480%
EC50 [4]: 0.18 µM
SMILES: CCN(Cc1cc2c(C)cn(CCC#N)c(=O)c2s1)c1ccc(F)cc1

IC50 [1]: 0.61 µM
logD [2]: 2.95
%max [3, 36]: 440%
EC50 [4]: 0.6 µM
SMILES: CCN(Cc1cc2cc(C)n(CCC#N)c(=O)c2s1)c1ccc(F)cc1
